According to patent US5360803A, “Composition and method for treating cancer” (Dan Farber Cancer Institute, priority 1992, dated 1994):
Read-outs that look alike come from different tables or passages of the source.

Legend:
MCF-7 cells = assay: colony assay of Example 1 with human breast carcinoma MCF-7 cell line; format: cell-based; conditions: for Selectivity: CV-1/MCF-7; for MCF-7(IC50) / IC50: Table VI, human breast carcinoma, 24 hours treatment
Excerpt: (§1) The control received culture media only.

CRL 1420 cells = assay: colony assay of Example 1 with human pancreatic carcinoma CRL 1420 cell line; format: cell-based; conditions: for Selectivity: CV-1/CRL-1420; for CRL-1420(IC50): Table VII, human pancreatic carcinoma, 24 hours treatment;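 as to all read-outs here: colony formation assay, cells exposed for 24 h then regrown 7 to 10 days without compound, colonies stained with crystal violet, control given medium alone, normal reference CV-1 monkey kidney epithelial cells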
Description: (§2) Human colon carcinoma cell line CX-1 or normal monkey kidney epithelial cell line CV-1 was chosen as representatives of cancer cells and normal cells, respectively. […] CX-1 cells (2,000 cells/well) and CV-1 cells (1,000 cells/well) were plated in 24-well plastic culture plates. […] The control received culture media only. Cells were treated with compounds of General Formulas (I) to (V) at 37° C. for 24 hours. After rinsing with fresh culture medium three times, the cells were further incubated at 37° C. for 7 to 10 days. Cell colonies were fixed and stained with 2% crystal violet in 70% ethanol for 10 minutes and rinsed in water. […] The selectivity is defined as the ratio of IC50 for CV-1 and IC50 for CX-1.

human melanoma LOX = assay: survival of nude mice implanted with human melanoma LOX; format: in vivo, male athymic Swiss nu/nu mouse (human tumor); conditions: for response vs control in vivo at 5 mg/kg: Mus musculus, ip, 24 h, read-out: T/C; for T/C: 5 mg/kg i.p. on day 1, 4, 8, 11, 15, 18
Description: LOX, a human melanoma cell line, grown subcutaneously in nude mice was excised, trypsinized to yield a single cell suspension using a metal grid with a […] mesh. […] Five million viable trypan blue negative cells made up in 0.1 ml of Dulbecco modified Eagle medium (DMFE) were injected into the peritoneal cavity of a male athymic Swiss nu/nu mouse. The control group and each treatment group consisted of 5 to 10 mice. Treatment was commenced the following day by intraperitoneal injection.
Ten control mice received 0.25 ml of 2% dextrose on these days the treated groups were injected with the compounds of this invention. […] T/C is the ratio, expressed as a percentage of the mean survival age of the treated group to the mean survival age of the untreated control group.

EJ cells = assay: colony assay of Example 1 with human bladder carcinoma EJ cell line; format: cell-based; conditions: for Selectivity: CV-1/EJ; for IC50: EJ; for IC50 / EJ (IC50): Table IV, human bladder carcinoma, 24 hours treatment;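 as to all read-outs here: colony formation assay with 24 h compound exposure at 37 °C, then 7–10 days drug-free regrowth, colonies stained with crystal violet, controls given medium alone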
Description: as §2

CX-1 cells = assay: selective killing assay, colony number reduced to 50% of control, human colon carcinoma cell line CX-1; format: cell-based; conditions: for Selectivity (ratio of IC50 for CV-1 and IC50 for CX-1): CV-1/CX-1; for IC50: Homo sapiens; for CX-1 (IC50): Table III;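 as to all read-outs here: colonies stained with crystal violet and counted, control cells given medium alone, exposure at 37 °C, normal monkey kidney epithelial CV-1 cells as the non-cancer comparator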
Description: as §2

LOX cells = assay: colony assay of Example 1 with human melanoma LOX cell line; format: cell-based; conditions: for Selectivity: CV-1/LOX; for LOX(IC50) / IC50: Table V, human melanoma, 24 hours treatment; for IC50: LOX;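 as to all read-outs here: colony formation assay with 24 h exposure at 37 °C, then 7 to 10 days of regrowth, crystal violet staining of colonies, control wells given medium alone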
CV-1 cells = assay: selective killing assay, colony number reduced to 50% of control, normal monkey kidney epithelial cell line CV-1; format: cell-based; conditions: 24 hours treatment; for IC50: Primates
Excerpt: as §1

[1] = tested on: human colon carcinoma CX-1; assay: anti-human colon carcinoma CX-1 activity using nude mice; format: in vivo, Swiss nu/nu mice (human tumor)
Excerpt: Human colon carcinoma cell line CX-1 has been chosen by the National Cancer Institute as a mode for cancer drug screening (NCI Protocol 3C2H2). It was established in culture from the surgical explant of the primary colon adenocarcinoma of a person with no previous chemotherapy. The cultured CX-1 cells, upon subcutaneous injection, can grow readily in nude mice as a moderately- to well-differentiated human colon carcinoma. CEA is expressed as expected for differentiated colon carcinoma cells. Abundant keratin, consistent with epithelial origin, is present. Increased uptake and prolonged retention of delocalized lipophilic cations are observed.
Swiss nu/nu mice obtained from Taconic Farm were housed in a pathogen-free environment. Tumors subcutaneously passaged in nude mice were excised under sterile conditions and converted to a single cell suspension using a metal grid with a 0.4 mm mesh. Red blood cells were lysed by incubation with 0.17M ammonium chloride at 4° C. for 20 minutes. Cells were scored for viability with trypan blue. Viable CX-1 cells (2.5 million) made up in 0.1 ml of […]. The mice were randomly allocated into a control group (five mice) and a treatment group (five mice per group). The drug treatment was commenced the next day. Doses and schedules were developed empirically and were based mainly on information on LD50 and LD1O obtained from preliminary toxicity studies. The control group received an equivalent volume of hydroxypropyl-β-cyclodextrin-5% glucose solution.
The pharmaceutical compositions tested comprised solutions in 5% glucose subjected to sonication at concentrations of 1 mg/ml. Those compounds which were not completely dissolved by this procedure were dissolved hydroxypropyl-β-cyclodextrin using the following method. Hydroxypropyl-β-cyclodextrin (45 g) was mixed with 100 ml of sterilized, double distilled water and stirred for four hours. Each of the compounds to be tested (20 mg) was mixed with 10 ml of hydroxypropyl-β-cyclodextrin solution and sonicated for 60 minutes in the dark. This solution was then diluted in 5% glucose to yield a final compound concentration of 0.5 mg/ml, and further sonicated for 60 minutes in the dark to assure that the compound was completely dissolved.
When the growth of tumors in the control group reached the exponential phase and the size of the tumor was palpable (usually 20 to 30 days after tumor implantation), the experiments were terminated. Tumors in each mouse were excised and weighed using an analytical balance. Total tumor weight in each group from five mice was calculated. Per cent tumor inhibition between the treated group and the control group was then calculated for each group.

[2] = 5 mg/kg i.p. on day 1, 4, 8, 11, 15
[3] = CV-1, Table III, normal monkey kidney epithelial cells, colony count after 7 to 10 days
[4] = CX-1, Table III, human colon carcinoma, 24 hours treatment, colony count after 7 to 10 days
[5] = human colon carcinoma, 24 hours treatment, colony count after 7 to 10 days
[6] = 5 mg/kg i.p. on day 1, 5, 9, 13
[7] = Table III, normal monkey kidney epithelial cells, colony count after 7 to 10 days

CRL-1420(IC50) (CRL 1420 cells) [µg/mL] | LOX(IC50) (LOX cells) [µg/mL] | Compound | Selectivity (MCF-7 cells) | Selectivity (CRL 1420 cells) | Selectivity (EJ cells) | Selectivity (ratio of IC50 for CV-1 and IC50 for CX-1) (CX-1 cells) | Selectivity (LOX cells) | IC50 (CX-1 cells; [4]) [µg/mL] | CX-1 (IC50) (CX-1 cells; [5]) [µg/mL] | CV-1 (IC50) (CV-1 cells; Table V) [µg/mL] | CV-1 (IC50) (CV-1 cells; [7]) [µg/mL] | also measured
0.05 | 0.09 | CCn1c(=Cc2oc3ccccc3[n+]2C)sc(=C2Sc3ccccc3N2C)c1=O [Compound 13] | – | > 400 | 222 | > 667 | > 222 | – | 0.03 | > 20 | > 20 | inhibition in vivo at 20 mg/kg ([1]; Mus musculus, ip, 24 h, 20 mg/kg i.p. on day 1, 5, 8, 12, 15, 19, read-out: Tumor Inhibition): 87.7%; response vs control in vivo at 5 mg/kg (human melanoma LOX; 5 mg/kg i.p. on day 1, 4, 8, 11): 147%; EJ (IC50) (EJ cells): 0.09 µg/mL; CV-1 (IC50) (CV-1 cells; Table IV): 20 µg/mL; CV-1 (IC50) (CV-1 cells; Table VII): > 20 µg/mL
0.015 | – | CCn1c(=Cc2sc3c4ccccc4ccc3[n+]2CC)sc(=C2Sc3ccc4ccccc4c3N2C)c1=O [Compound 82] | 312 | 1333 | 1333 | 400 | 312 | 0.05 | – | – | – | IC50 (MCF-7 cells; Homo sapiens, MCF7, 24 h): 0.064 µg/mL; response vs control in vivo at 5 mg/kg (human melanoma LOX; [2]): 142%; IC50 (EJ cells; Homo sapiens, 24 h): 0.015 µg/mL; IC50 (LOX cells; Homo sapiens, 24 h): 0.064 µg/mL; IC50 (CV-1 cells; CV-1, 24 h, Table IV): 20 µg/mL; IC50 (CV-1 cells; CV-1, 24 h, Table V): 20 µg/mL; IC50 (CV-1 cells; CV-1, 24 h, Table VI): 20 µg/mL; IC50 (CV-1 cells; CV-1, 24 h, Table VII): 20 µg/mL; IC50 (CV-1 cells; [3]): 20 µg/mL
0.04 | 0.03 | CCn1c(=CC2=[N+](CC)CCS2)sc(=C2Sc3ccccc3N2C)c1=O [Compound 335] | 100 | 500 | 200 | 200 | 667 | – | 0.1 | 20 | 26 | MCF-7(IC50) (MCF-7 cells): 0.2 µg/mL; response vs control in vivo at 5 mg/kg (human melanoma LOX; 5 mg/kg i.p. on day 1, 5, 8, 11, 14): 189%; EJ (IC50) (EJ cells): 0.1 µg/mL; CV-1 (IC50) (CV-1 cells; Table IV): 20 µg/mL; CV-1 (IC50) (CV-1 cells; Table VI): 20 µg/mL; CV-1 (IC50) (CV-1 cells; Table VII): 20 µg/mL
0.03 | – | CCn1c(=Cc2sc3ccccc3[n+]2CC)sc(=C2Sc3ccccc3N2C)c1=O [Compound 336] | 100 | 667 | 667 | – | 4000 | – | – | – | – | IC50 (MCF-7 cells; MCF7): 0.2 µg/mL; response vs control in vivo at 5 mg/kg (human melanoma LOX; 5 mg/kg i.p. on day 1, 3, 4, 6, 8, 10, 13): 188%; IC50 (EJ cells): 0.03 µg/mL; IC50 (LOX cells): 0.005 µg/mL; IC50 (CV-1 cells; CV-1, Table IV): 20 µg/mL; IC50 (CV-1 cells; CV-1, Table V): 20 µg/mL

More lines, now with the values behind:

Compound | CRL-1420(IC50) (CRL 1420 cells) [µg/mL] | LOX(IC50) (LOX cells) [µg/mL] | Selectivity (MCF-7 cells) | Selectivity (CRL 1420 cells) | Selectivity (EJ cells) | Selectivity (ratio of IC50 for CV-1 and IC50 for CX-1) (CX-1 cells) | Selectivity (LOX cells) | IC50 (CX-1 cells; [4]) [µg/mL] | CX-1 (IC50) (CX-1 cells; [5]) [µg/mL] | CV-1 (IC50) (CV-1 cells; Table V) [µg/mL] | CV-1 (IC50) (CV-1 cells; [7]) [µg/mL] | also measured
CCn1c(=Cc2sc3ccccc3[n+]2CC)sc(=C2Sc3ccccc3N2C)c1=O [Compound 2] | 0.01 | 0.015 | 111 | 1000 | 200 | 333 | 667 | – | – | – | – | MCF-7(IC50) (MCF-7 cells): 0.09 µg/mL; response vs control in vivo at 5 mg/kg (human melanoma LOX; [2]): 163%; IC50 (EJ cells; Homo sapiens, 24 h): 0.02 µg/mL; IC50 (CX-1 cells; CX-1): 0.03 µg/mL; IC50 (CV-1 cells; CV-1, 24 h, Table V): 10 µg/mL; IC50 (CV-1 cells; CV-1, 24 h, Table VI): 10 µg/mL; IC50 (CV-1 cells; CV-1, 24 h, Table VII): 10 µg/mL; IC50 (CV-1 cells; [3]): 10 µg/mL; CV-1 (IC50) (CV-1 cells; Table IV): 4 µg/mL
CC[n+]1c(C=c2sc(=C3Sc4ccccc4N3C)c(=O)n2-c2ccccc2)sc2ccccc21 [Compound 7] | – | – | – | – | – | 300 | – | 0.005 | – | – | – | inhibition in vivo at 5 mg/kg ([1]; Mus musculus, ip, 24 h, 5 mg/kg i.p. on day 1, 5, 7, read-out: Tumor Inhibition): 42%; response vs control in vivo at 5 mg/kg (human melanoma LOX; 5 mg/kg i.p. on day 1, 4, 8, 12): 182%; IC50 (CV-1 cells; [3]): 1.5 µg/mL
CCn1c(=Cc2oc3ccccc3[n+]2C)sc(=C2Sc3ccccc3N2C)c1=O [Compound 8] | – | – | – | – | – | 500 | > 200 | 0.04 | – | – | – | inhibition in vivo at 5 mg/kg ([1]; Mus musculus, ip, 24 h, 5 mg/kg i.p. on day 1, 5, 9, 13, read-out: Tumor Inhibition): 55.1%; response vs control in vivo at 5 mg/kg (human melanoma LOX; [2]): 142%; IC50 (LOX cells; Homo sapiens, 24 h): < 0.1 µg/mL; IC50 (CV-1 cells; CV-1, 24 h, Table V): 20 µg/mL
CCn1c(=Cc2oc3ccccc3[n+]2C)sc(=C2Sc3ccccc3N2C)c1=O [Compound 9] | 0.09 | 0.1 | – | 222 | 400 | 500 | > 300 | – | 0.04 | > 30 | – | inhibition in vivo at 5 mg/kg ([1]; Mus musculus, ip, 24 h, 5 mg/kg i.p. on day 1, 9, 13, read-out: Tumor Inhibition): 45.2%; T/C (human melanoma LOX): 142%; EJ (IC50) (EJ cells): 0.05 µg/mL; IC50 (CV-1 cells; CV-1, 24 h, Table IV): 20 µg/mL; IC50 (CV-1 cells; CV-1, 24 h, Table VII): 20 µg/mL
CCn1c(=Cc2oc3ccccc3[n+]2C)sc(=C2Sc3ccccc3N2C)c1=O [Compound 10] | 0.08 | 0.1 | – | 250 | – | 500 | > 300 | – | 0.04 | > 30 | 20 | Tumor Inhibition [1, 6]: 66.0%; T/C (human melanoma LOX): 171%; CV-1 (IC50) (CV-1 cells; Table VII): 20 µg/mL
CCn1c(=Cc2oc3ccccc3[n+]2CC)sc(=C2Sc3ccccc3N2C)c1=O [Compound 28] | – | – | – | – | – | 175 | – | – | 0.04 | – | 7 | inhibition in vivo at 5 mg/kg ([1]; Mus musculus, ip, 24 h, 5 mg/kg i.p. on day 1, 4, 8, 12, 16, 21, read-out: Tumor Inhibition): 68.8%
CN1C(=c2sc(=Cc3oc4ccccc4[n+]3C)n(C)c2=O)Sc2ccccc21 [Compound 57] | – | – | – | – | – | 120 | – | 0.05 | – | – | 6 | inhibition in vivo at 10 mg/kg ([1]; Mus musculus, ip, 24 h, 10 mg/kg i.p. on day 1, 2, 5, 6, 7, 8, read-out: Tumor Inhibition): 66.3%; response vs control in vivo at 5 mg/kg (human melanoma LOX; 5 mg/kg i.p. on day 1, 2, 3, 6, 7, 8, 9, 10, 14): 163%
CCn1c(=Cc2oc3ccc(-c4ccccc4)cc3[n+]2CC)sc(=C2Sc3ccccc3N2C)c1=O [Compound 203] | – | – | – | – | – | – | – | – | – | – | – | inhibition in vivo at 5 mg/kg ([1]; Mus musculus, ip, 24 h, 5 mg/kg i.p. on day 1, 5, 8, 11, read-out: Tumor Inhibition): 71.9%; response vs control in vivo at 5 mg/kg (human melanoma LOX; [6]): 139%
